In the supplement of paper PMC10307832:

Assays:
Assay in all cases: relative viability (nuclei count vs DMSO), 5 days (fraction); higher = more cells survive
Tipifarnib + Palbociclib = compound: Cn1cncc1[C@@](N)(c1ccc(Cl)cc1)c1ccc2c(c1)c(-c1cccc(Cl)c1)cc(=O)n2C [Tipifarnib] + CC(=O)c1c(C)c2cnc(Nc3ccc(N4CCNCC4)cn3)nc2n(C2CCCC2)c1=O [Palbociclib] (partner 0.5 µM)
How it was run: (§1)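 Lung cancer cell lines, seeded in 1536-well plates, were treated the following day by pin tool with a single drug or with five library-drug doses (not always all listed) in √10 steps on top of a fixed anchor-drug dose. Cells were fixed and nuclei stained in one step after 5 days, and nuclei were counted. Relative viability is the nuclei count for treated wells divided by that for vehicle wells, reported as medians of duplicate plates.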

Tipifarnib + Luminespib = compound: Cn1cncc1[C@@](N)(c1ccc(Cl)cc1)c1ccc2c(c1)c(-c1cccc(Cl)c1)cc(=O)n2C [Tipifarnib] + CCNC(=O)c1noc(-c2cc(C(C)C)c(O)cc2O)c1-c1ccc(CN2CCOCC2)cc1 [Luminespib] (partner 0.01 µM)
How it was run: as §1

Tipifarnib + OSI-027 = compound: Cn1cncc1[C@@](N)(c1ccc(Cl)cc1)c1ccc2c(c1)c(-c1cccc(Cl)c1)cc(=O)n2C [Tipifarnib] + COc1cccc2cc(-c3nc([C@H]4CC[C@H](C(=O)O)CC4)n4ncnc(N)c34)[nH]c12 [OSI-027] (partner 0.5 µM)
How it was run: as §1

Tipifarnib + Pictilisib = compound: Cn1cncc1[C@@](N)(c1ccc(Cl)cc1)c1ccc2c(c1)c(-c1cccc(Cl)c1)cc(=O)n2C [Tipifarnib] + CS(=O)(=O)N1CCN(Cc2cc3nc(-c4cccc5[nH]ncc45)nc(N4CCOCC4)c3s2)CC1 [Pictilisib] (partner 1 µM)
How it was run: as §1

Cell Line | relative viability (Tipifarnib + Palbociclib; first compound 0.01 µM) | relative viability (Tipifarnib + Palbociclib; first compound 0.03162 µM) | relative viability (Tipifarnib + Palbociclib; first compound 0.1 µM) | relative viability (Tipifarnib + Palbociclib; first compound 0.3162 µM) | relative viability (Tipifarnib + Palbociclib; first compound 1 µM) | relative viability (Tipifarnib + Luminespib; first compound 0.01 µM) | relative viability (Tipifarnib + Luminespib; first compound 0.03162 µM) | relative viability (Tipifarnib + Luminespib; first compound 0.1 µM) | relative viability (Tipifarnib + Luminespib; first compound 0.3162 µM) | relative viability (Tipifarnib + Luminespib; first compound 1 µM) | relative viability (Tipifarnib + OSI-027; first compound 0.01 µM) | relative viability (Tipifarnib + OSI-027; first compound 0.03162 µM) | relative viability (Tipifarnib + OSI-027; first compound 0.1 µM) | relative viability (Tipifarnib + OSI-027; first compound 0.3162 µM) | relative viability (Tipifarnib + OSI-027; first compound 1 µM) | relative viability (Tipifarnib + Pictilisib; first compound 0.01 µM) | relative viability (Tipifarnib + Pictilisib; first compound 0.03162 µM) | relative viability (Tipifarnib + Pictilisib; first compound 0.1 µM) | relative viability (Tipifarnib + Pictilisib; first compound 0.3162 µM) | relative viability (Tipifarnib + Pictilisib; first compound 1 µM)
CAL-12T | 0.512 | 0.302 | 0.377 | 0.21 | 0.13 | 0.284 | 0.335 | 0.267 | 0.151 | 0.15 | 0.565 | 0.358 | 0.37 | 0.272 | 0.232 | 0.388 | 0.329 | 0.384 | 0.414 | 0.32
COR-L23 | 0.302 | 0.222 | 0.198 | 0.153 | 0.173 | 0.814 | 0.568 | 0.511 | 0.344 | 0.438 | 0.572 | 0.36 | 0.261 | 0.24 | 0.202 | 0.816 | 0.509 | 0.458 | 0.383 | 0.298
NCI-H1755 | 0.464 | 0.471 | 0.463 | 0.445 | 0.465 | 0.516 | 0.475 | 0.516 | 0.545 | 0.201 | 0.75 | 0.603 | 0.677 | 0.622 | 0.452 | 0.466 | 0.358 | 0.423 | 0.344 | 0.274
NCI-H1437 | 0.327 | 0.357 | 0.336 | 0.288 | 0.303 | 1.25 | 1.17 | 1.15 | 0.913 | 1.07 | 0.823 | 0.728 | 0.488 | 0.446 | 0.33 | 0.457 | 0.466 | 0.45 | 0.343 | 0.212
NCI-H2085 | 0.492 | 0.431 | 0.472 | 0.413 | 0.506 | 0.406 | 0.317 | 0.34 | 0.295 | 0.34 | 0.738 | 0.377 | 0.397 | 0.367 | 0.538 | 0.513 | 0.478 | 0.446 | 0.541 | 0.43
H3255 | 0.331 | 0.276 | 0.27 | 0.287 | 0.258 | 1.13 | 0.873 | 0.846 | 0.654 | 0.53 | 0.757 | 0.704 | 0.61 | 0.471 | 0.438 | 0.565 | 0.449 | 0.416 | 0.375 | 0.395
NCI-H650 | 0.368 | 0.321 | 0.379 | 0.269 | 0.233 | 0.888 | 0.697 | 0.61 | 0.57 | 0.442 | 0.486 | 0.375 | 0.297 | 0.305 | 0.266 | 1.14 | 0.746 | 0.647 | 0.557 | 0.351
